# According to patent US9951045B2, “Indazole compounds as 5-HT4 receptor agonists” (SUVEN LIFE SCIENCES LIMITED, priority 2013, dated 2018):
# Structures can show the parent of a compound that is named as a salt.
# Assays:
# [1] = Rodent brain penetration study; type: in vivo, Male Wistar rats; settings: male, Wistar, brain and plasma; rat, 3 mg/kg oral (gavage); read-out: Single dose Brain Penetration (Cb/Cp)
# Procedure: Male Wistar rats (225±25 grams) were used as experimental animals. Three animals were housed in each cage. Animals were given water and food ad libitum throughout the experiment and maintained on a 12 hours light/dark cycle.
# Brain penetration was determined in discrete manner in rats. One day prior to dosing day, male wistar rats (225-250 grams) were acclimatized. After acclimatization the rats were grouped according to their weight. In each group, 3 animals were kept in individual cage and allowed free access to food and water. At each time point (0.50, 1, and 2 hours) n=3 animals were used.
# The compounds of formula (I) were suitably preformulated and administered orally at (free base equivalent) 3 mg/kg. Blood samples were removed via, cardiac puncture by using isoflurane anesthesia. The animals were sacrificed to collect brain tissue. Plasma was separated and brain samples were homogenized and stored frozen at −20° C. until analysis. The concentrations of the compounds of formula (I) in plasma and brain were determined using LC-MS/MS method.
# The compounds of formula (I) were quantified in plasma and brain homogenate by qualified LC-MS/MS method using suitable extraction technique. The compounds of formula (I) were quantified in the calibration range of 1-500 ng/mL in plasma and brain homogenate. Study samples were analyzed using calibration samples in the batch and quality control samples spread across the batch. Extent of brain-plasma ratio was calculated (Cb/Cp).
# [2] = target: T1, recombinant human 5-HT4 receptor (Homo sapiens, UniProt Q13639); assay: Determination of EC50 values for 5-HT4 receptor (CHO cells, pCRE-Luc reporter); type: cell-based; settings: luciferase reporter, 4 hours incubation, read-out: 5-HT4 receptor agonistic binding in-vitro EC50
# T1 construct: expressed in transfected cells
# T1 sequence (Q13639 whole entry): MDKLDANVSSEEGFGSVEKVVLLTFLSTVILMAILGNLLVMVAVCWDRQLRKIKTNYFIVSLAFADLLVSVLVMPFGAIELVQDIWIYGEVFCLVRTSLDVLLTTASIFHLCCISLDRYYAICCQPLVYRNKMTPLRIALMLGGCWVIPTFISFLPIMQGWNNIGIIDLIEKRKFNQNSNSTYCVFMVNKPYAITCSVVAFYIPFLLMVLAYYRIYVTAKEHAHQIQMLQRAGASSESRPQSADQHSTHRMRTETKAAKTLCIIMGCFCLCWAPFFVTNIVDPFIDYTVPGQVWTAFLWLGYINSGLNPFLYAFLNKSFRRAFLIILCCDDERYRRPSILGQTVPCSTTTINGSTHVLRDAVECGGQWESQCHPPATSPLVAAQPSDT
# Procedure: A stable CHO cell line expressing recombinant human 5-HT4 receptor and pCRE-Luc reporter system was used for cell-based assay. The assay offers a non-radioactive based approach to determine binding of a compound to GPCRs. In this specific assay, the level of intracellular cyclic AMP, which is modulated by activation, or inhibition of the receptor is measured. The recombinant cells harbor luciferase reporter gene under the control of cAMP response element.
# The above cells were grown in 96 well clear bottom white plates in Hams F12 medium containing 10% fetal bovine serum (FBS). Prior to the addition of compounds or standard agonist, cells were serum starved overnight. Increasing concentrations of test compounds were added in OptiMEM medium to the cells. The incubation was continued at 37° C. in CO2 incubator for 4 hours. Medium was removed and cells were washed with phosphate buffered saline. The cells were lysed and luciferase activity was measured in a Luminometer. Luminescence units were plotted against the compound concentrations using Graphpad software. EC50 values of the compounds were defined as the concentration required in stimulating the luciferase activity by 50%.
# [3] = Rodent pharmacokinetic study; type: in vivo, Male wistar rats; settings: male, Wistar, plasma, rat; for bioavailability: 3 mg/kg oral vs 1 mg/kg intravenous
# Procedure: Male wistar rats (225=25 grams) were used as experimental animals. Three to five animals were housed in each cage. Two days prior to dosing day, male wistar rats (225-250 grams) were anesthetized with isoflurane for surgical placement of jugular vein catheter. Animals were fasted over night before oral dosing (p.o) and food pellets were allowed 2 hours post dosing, whereas during intravenous dosing food and water were provided as ad libitum. Three rats were dosed with compounds of formula (I) (3 mg/kg) orally and intravenously (1 mg/kg).
# At each time point blood was collected through jugular vein and immediately replenish with an equivalent volume of normal saline from freely moving rats. Collected blood was transferred into a labeled eppendr off containing 10 μL of heparin as anticoagulant. Typically blood samples were collected as following time points: Pre dose, 0.08 (only i.v.), 0.25, 0.5, 1, 2, 4, 6, 8, and 24 hours post
# dose (n=3). Blood was centrifuged at 4000 rpm for 10 minutes. Plasma was prepared and stored frozen at −20° C. until analysis. The concentrations of the compounds of formula (I) were quantified in plasma by qualified LC-MS/MS method using suitable extraction technique. The compounds of formula (I) were quantified in the calibration range around 2-2000 ng/mL in plasma. Study samples were analyzed using calibration samples in the batch and quality control samples spread across the batch.
# Pharmacokinetic parameters Cmax, Tmax, AUCt, T1/2 and Bioavailability were calculated by non-compartmental model using standard non-compartmental model by using WinNonLin 5.0.1 or Phoenix WinNonlin 6.2 version Software package.
# Male Wistar rats = assay: Object recognition task model; type: in vivo; settings: rat, p.o.
# Procedure: The cognition enhancing properties of compounds of this invention were estimated by using this model.
# Male Wistar rats (230-280 grams) were used as experimental animals. Four animals were housed in each cage. Animals were kept on 20% food deprivation before one day and given water ad libitum throughout the experiment and maintained on a 12 hours light/dark cycle. Also the rats were habituated to individual arenas for 1 hour in the absence of any objects.
# One group of 12 rats received vehicle (1 mL/Kg) orally and another set of animals received compound of the formula (I) either orally or i.p., before one hour of the familiar (T1) and choice trial (T2).
# The experiment was carried out in a 50×50×50 cm open field made up of acrylic. In the familiarization phase, (T1), the rats were placed individually in the open field for 3 minutes, in which two identical objects (plastic bottles, 12.5 cm height×5.5 cm diameter) covered in yellow masking tape alone (a1 and a2) were positioned in two adjacent corners, 10 cms from the walls. After 24 hours of the (T1) trial for long-term memory test, the same rats were placed in the same arena as they were placed in T1 trial. Choice phase (T2) rats were allowed to explore the open field for 3 minutes in presence of one familiar object (a3) and one novel object (b) (Amber color glass bottle, 12 cm high and 5 cm in diameter). Familiar objects presented similar textures, colors and sizes. During the T1 and T2 trial, explorations of each object (defined as sniffing, licking, chewing or having moving vibrissae whilst directing the nose towards the object at a distance of less than 1 cm) were recorded separately by stopwatch. Sitting on an object was not regarded as exploratory activity, however, it was rarely observed.
# T1 is the total time spent exploring the familiar objects (a1+a2).
# T2 is the total time spent exploring the familiar object and novel object (a3+b).
# The object recognition test was performed as described by Behaviour Brain Research, 31 (1988), 47-59.
# [4] = tested on: Scopolamine Induced amnesia; assay: Radial arm maze; type: in vivo, rats; settings: p.o.
# Excerpt: The cognition enhancing properties of compounds of formula (I) of this invention were estimated by using this model. Radial arm maze consists of a central hub of 45 cm diameter. Each arm was of dimension 42.5×15×24 cm. The maze was elevated to a height of 1 m above the ground. The animals were placed on a restricted diet until they reached approximately 85% of their free feeding weight. During this diet restriction period animals were habituated to the novel feed (pellets). Once the rats reached approximately 85% of their free feeding weight rats were habituated to the maze on the 1^St and 2nd day. […] Animals were randomized on day 2. On the subsequent days the treatment was given as per the allotment. Each animal was introduced into the maze individually for a period of 10 minutes. The arms were baited only once and the animal had to learn the rule that repeated arm entries would not be rewarded. The trial ended once the rat had visited 16 arms or 10 minutes were over or all the pellets were eaten. The arm entries were recorded using the software. Once the trial was over the rat was removed and the maze was cleaned using soap water.
# sAPPα = assay: Estimation of mice brain cortical sAPPα levels (ELISA); type: in vivo; settings: 0.1 and 10 mg/kg s.c., single injection, 60 minutes
# Procedure: 1. […] 2. […] 3. […] 4. […] 5. […] Statistical analyses were performed using the Graph Pad Prism (Version 4). […] Values were compared between the different groups by using unpaired t test.
SMILES,Kp [1],EC50 [2],AUC(0-t) ([3]; 1 mg/kg intravenous (bolus)),half-life ([3]; 1 mg/kg intravenous (bolus)),AUC(0-t) ([3]; 3 mg/kg oral (gavage)),Cmax ([3]; 3 mg/kg oral (gavage)),Tmax ([3]; 3 mg/kg oral (gavage)),half-life ([3]; 3 mg/kg oral (gavage)),bioavailability [3],"Exploration time mean ± S.E.M, Familiar object (Male Wistar rats; 1 mg/kg)","Exploration time mean ± S.E.M, Novel object (Male Wistar rats; 1 mg/kg)",Inference (Male Wistar rats; 1 mg/kg),Reversal of Scopolamine Induced amnesia - Effective dose range [4],"Exploration time mean ± S.E.M, Familiar object (Male Wistar rats; 0.3 mg/kg)","Exploration time mean ± S.E.M, Novel object (Male Wistar rats; 0.3 mg/kg)",Inference (Male Wistar rats; 0.3 mg/kg),increase of mice brain cortical sAPPα levels in comparison with control group (sAPPα)
"CC(C)n1cc2cccc(C(=O)NCC3CCN(CC4CCOCC4)CC3)c2n1 [Example 1, N—[(N-tetrahydropyran-4-ylmethyl)piperidin-4-ylmethyl]-2-isopropyl-2H-indazole-7-carboxamide fumarate]",0.98 ± 0.34,≤ 1 nM,287 ± 40 ng·h/mL,66 ± 6 min,212 ± 46 ng·h/mL,107 ± 22 ng/mL,25.2 ± 8.4 min,90 min,25 ± 5%,8.51 ± 1.35 s,15.51 ± 1.37 s,Active,–,–,–,–,–
"CCn1cc2cccc(C(=O)NCC3CCN(CC4CCOCC4)CC3)c2n1.O=C(O)/C=C/C(=O)O [Example 2, N—[(N-tetrahydropyran-4-ylmethyl)piperidin-4-ylmethyl]-2-ethyl-2H-indazole-7-carboxamide fumarate]",1 ± 0.15,≤ 1 nM,145 ± 18 ng·h/mL,102 ± 30 min,190 ± 43 ng·h/mL,223 ± 118 ng/mL,19.8 ± 8.4 min,66 ± 36 min,44 ± 10%,–,–,–,"0.3 mg/kg, p.o.",7.21 ± 1.99 s,13.10 ± 1.78 s,Active,–
"CC(C)n1cc2cccc(C(=O)NCC3CCN(CC(C)(C)O)CC3)c2n1.O=C(O)C(O)C(O)C(=O)O [Example 32, N—[N-(2-hydroxy-2-methylpropyl)piperidin-4-ylmethyl]-2-isopropyl-2H-indazole-7-carboxamide L(+) Tartarate]",0.52 ± 0.08,≤ 1 nM,281 ± 6 ng·h/mL,72 ± 6 min,155 ± 3 ng·h/mL,110 ± 8 ng/mL,30 min,48 min,18%,–,–,–,"0.3 mg/kg, p.o.",7.79 ± 1.27 s,17.98 ± 2.41 s,Active,–
"COCCCN1CC2C(CNC(=O)c3cccc4cn(C(C)C)nc34)C2C1.O=C(O)C(=O)O (stereo not shown) [Example 3, N—[N-(3-methoxypropyl)-3-azabicyclo[3.1.0]hexane-6-ylmethyl]-2-isopropyl-2H-indazole-7-carboxamide oxalate]",0.96 ± 0.12,1.1 to 5 nM,397 ± 28 ng·h/mL,54 ± 6 min,560 ± 117 ng·h/mL,467 ± 37 ng/mL,19.8 ± 8.4 min,48 ± 6 min,47 ± 10%,5.67 ± 1.15 s,14.26 ± 1.64 s,Active,"3 mg/kg, p.o.",–,–,–,25-30%
